From patent publication US11304956B2, “Use of 7-bromo-5-(O-chlorophenyl)-3-propoxy-1,2-dihydro-3H-1,4-benzodiazepin-2-one for inhibition of neuropathic pain and seizures of different etiology” (priority 2016, dated 2022)

What was measured:
[1] = system: thermal tail flick test in rats; experiment: Model of thermal stimulation (tail-flick); type: in vivo; conditions: n=10
Excerpt: The problem was solved by experimental study of the antinociceptive action of the test compound 1 on the model of NP in rats and on the model of pain with the participation of central mechanisms, in particular, thermal tail flick test in rats. Based on the available data on the positive response of constant pain to anticonvulsants in the acute and paroxysmal phase and considering structure 1, we performed an evaluation of the anticonvulsant action of the compound on models of pentamethylenetetrazol-induced convulsions and seizures caused by maximal electroshock (MES). We have taken into account the possible side reaction (ulcerogenic effect) of the compound in experimental animals, expressed in the formation of defects in the mucous membrane of the gastrointestinal tract or in provocation of already existing peptic ulcer relapses. The probability of ulcers formation of medicinal origin is especially high during administration of non-steroidal anti-inflammatory drugs in high doses and in combination with their long-term use in the form of tablets.
A more pronounced effect was after parenteral administration (see Table 2). Control: solvent (twin, distilled water, pH-corrector). Results of the study of Compound 1 and ketorolac analgesic effects on the model of thermal stimulation (tail-flick) as degree of pain sensitivity threshold increase in relation to the initial level (%), n=10, are given in Table 2.

[2] = system: carrageenan rat paw edema; experiment: Carrageenan rat paw edema; type: in vivo, male white rats
Excerpt: Given the fact that Compound 1 affects not only the painful, but also the inflammatory phase, we undertook an in-depth study of its anti-inflammatory effect. The most common screening method of anti-inflammatory activity is the model of inflammatory edema of the rat hind paw, induced by the subplantar administration of various phlogogenic agents. Under the conditions of carrageenan administration, a sufficiently pronounced edema reaction is observed, which slowly develops and persists for a long time. The maximum size of edema is observed in 2-4 hours.
The anti-inflammatory properties of the test compounds were studied in the model of carrageenan rat paw edema. Male white rats weighing 150-180 g were used in the experiments. Before the administration of the experimental substances, the volumes of the rats' paws subsequently injected by phlogogen were measured. The test compounds and the reference drug—diclofenac-sodium, were administered intraperitoneally 40 minutes prior the inflammation induction. The control group of the rats received an equivalent amount of physiological solution in the emulsion with Tween-80. Acute aseptic inflammation was induced by a 1% aqueous solution of 0.1 ml)—carrageenan injection under plantar aponeurosis of the hind paw of animals of the experimental and control groups (see Trinus F. P. Nonsteroidal anti-inflammatory drugs/F. P. Trinus, N. A. Mohort, B. M. Klebanov//K., 1975, pp. 204-231., Winter C. A. Carrageenin—induced edema in hind paw of the rat as an assay for antiinflammatory drugs/C. A. Winter, E. A. Risley, G. V. Nuss//Proc. Soc. Exp. Biol. Med.—1962.—Vol. 111.—P. 544-547). The inflammatory reaction significance was evaluated after two and four hours after the phlogogen injection. Registration of edema size was carried out by mechanical measurement of foot volume in dynamics according to Zakharevsky A. S. (see Zaharevskiy A. S. The influence of some indole derivatives on the nervous system. Diss. cand. med. science/Zaharevskiy Aleksandr Stepanovich-Minsk.—1969.—78-80 p.). The edema extent was estimated according to the difference in volume between the swollen paw and the paw before inflammation induction. The anti-inflammatory efficacy of the test compounds was determined as the ability of the test compounds to suppress the inflammatory response in the experimental animals compared to the control animals and expressed as a percentage. The calculation was carried out according to the following formula:
The percentage of inflammation suppression=(ΔVκ−ΔV ? /ΔVκ)·100%,
where: ΔVκ—the average increase in the volume of the swollen paw in the control;
ΔV ? —the average increase in the volume of the swollen paw in animals injected by experimental substances.

gastric mucosa = experiment: Ulcerogenic effect, subchronic experiment (4 days intragastric); type: in vivo, rats; conditions: 50 mg/kg intragastrically for 4 days
Protocol: The disadvantage of most analgesics is the fact that they have ulcerogenic effect that interferes with their long-term use. We have studied this side effect of Compound 1 in acute and subchronic experiments. In the first scheme, the compound in the form of an aqueous suspension (Tween-80) was administered in single dose intragastrically to rats, which had previously been deprived of food for 16 hours with free access to water. After 3 hours, the animals were euthanized with a cervical dislocation, then, after dissection of the abdominal cavity, stomachs were ejected and washed in isotonic sodium chloride solution to take out the contents. Damage of stomach was determined visually. In the second scheme, the compound was administered intragastrically for 4 days, after that the extent of the damaging effect on the stomach was determined, as in the previous experiment.
Evaluation of ulcerogenic action was carried out on a 4-score scale:
0 score—no damage; 0.5 score—hyperemia (blood vessels overflow)
1 score—single minor lesions (1-3 point hemorrhages or small ulcers)
2 score—multiple (more than 3) lesions (erosions, pinpoint hemorrhages) or 1 large ulcer
3 score—significant and massive damages (erosions, hemorrhages) of the gastric mucosa with significant size (diameter up to 4 mm)
4 score—gross injuries (massive hemorrhages, erosions, perforations) that cover the entire surface of the gastric mucosa.
The average multiplicity index of damage to the gastric mucosa (the number of ulcers per animal) and the severity of the damage (in scores) were determined.
Compound 1 was administered over a wide dose range—in acute studies—50, 250, 500 and 1000 mg/kg. For the subchronic experiment, the compound was used at a dose of 50 mg/kg.
We also determined the indexes of gastrotoxicity of gastric mucosa under conditions of repeated intragastral administration (for 4 days at a dose of 50 mg/kg). […] The average severity in this group was of 1.4±0.27 score, and the multiplicity was of 1.9±0.64 ulcers per animal. This also indicates the absence of a gastrotoxic effect of this compound on the stomach.

[3] = 3.0 mg/kg intraperitoneally 40 min before carrageenan
[4] = 10.0 mg/kg intraperitoneally 40 min before carrageenan

In the case of `CCCOC1N=C(c2ccccc2Cl)c2cc(Br)ccc2NC1=O` (centres unmarked) [Compound 1, 7-bromo-5-(o-chlorophenyl)-3-propoxy-1,2-dihydro-3H-1,4-benzodiazepin-2-one], the “Degree of pain sensitivity threshold increase in relation to the initial level” value ([1]; 0.5 mg/kg intraperitoneally, 1 hour) was “+27.4%”, the “Degree of pain sensitivity threshold increase in relation to the initial level” value ([1]; 0.5 mg/kg intraperitoneally, 2 hours) was “+38.4%” and the “Degree of pain sensitivity threshold increase in relation to the initial level” value ([1]; 0.5 mg/kg intraperitoneally, 4 hours) was “+42.3%”. For the same compound, the “Degree of pain sensitivity threshold increase in relation to the initial level” value ([1]; 0.5 mg/kg intraperitoneally, 6 hours) was “+34.9%”, the “Degree of pain sensitivity threshold increase in relation to the initial level” value ([1]; 0.5 mg/kg orally, 1 hour) was “+13.2%” and the “Degree of pain sensitivity threshold increase in relation to the initial level” value ([1]; 0.5 mg/kg orally, 2 hours) was “+22.4%”. The “Degree of pain sensitivity threshold increase in relation to the initial level” value ([1]; 0.5 mg/kg orally, 4 hours) was “+21.7%”, the “Degree of pain sensitivity threshold increase in relation to the initial level” value ([1]; 0.5 mg/kg orally, 6 hours) was “+8.77%” and the “Degree of pain sensitivity threshold increase in relation to the initial level” value ([1]; 3 mg/kg orally, 1 hour) was “+60.7%”. The “Degree of pain sensitivity threshold increase in relation to the initial level” value ([1]; 3 mg/kg orally, 2 hours) was “+83.3%”, the “Degree of pain sensitivity threshold increase in relation to the initial level” value ([1]; 3 mg/kg orally, 4 hours) was “+65.2%” and the “Degree of pain sensitivity threshold increase in relation to the initial level” value ([1]; 3 mg/kg orally, 6 hours) was “+39.4%”. For the same compound, the “Inhibition of edema in 2 hours (%)” value [2, 3] was 36.7 ± 4.1 %, the “Inhibition of edema in 4 hours (%)” value [2, 3] was 25.00 ± 2.7 % and the “Inhibition of edema in 2 hours (%)” value [2, 4] was 47.0 ± 4.1 %. For the same compound, the “Inhibition of edema in 4 hours (%)” value [2, 4] was 26.70 ± 5.4 %, the “Macroscopic examination of the gastric mucosa” value (gastric mucosa) was “insignificant decrease in the folding of the gastric mucosa and a rather distinct decrease in the amount of mucus” and the Multiplicity (gastric mucosa; n=10) was 1.9±0.64 ulcers per animal. For the same compound, the “Number of animals with lesions of the gastric mucosa, score 1” value (gastric mucosa; n=10) was 6, the “Number of animals with lesions of the gastric mucosa, score 2” value (gastric mucosa; n=10) was 5 and the “Number of animals with lesions of the gastric mucosa, score 3” value (gastric mucosa; n=10) was 0. The “Number of animals with lesions of the gastric mucosa, score 4” value (gastric mucosa; n=10) was 0 and the Average severity (gastric mucosa; n=10, 4-score scale) was 1.4±0.27 score.
